# Test results: patent US20120059162A1, “FUSED IMIDAZOLE DERIVATIVE HAVING TTK INHIBITORY ACTION” (Oncotherapy Science, Inc., priority 2009, published 2012)
# System: A549
# Experiment: A549 assay: screening of cancer cell growth inhibiting compound
# Format: cell-based
# Conditions: Homo sapiens, 72 h; A549 cells, three days, WST-8; read-out: A549 IC50
# Description: Screening of Cancer Cell Growth Inhibiting Compound
# A cell suspension solution (RERF-LC-AI, A549: 1×10^4/ml, MRC5: 3×10^4/ml and 1×10^5/ml) adjusted to an appropriate concentration with D-MEM (hereinafter, referred to as a culture solution and manufactured by Nacalai Tesque Inc.) supplemented with 10% FBS (HyClone) was added to the wells of a 96-well plate (hereinafter, well plate) at a rate of 100 μL/well and incubated in a CO2 incubator at 37° C. for a day. […] Next, cells were added to each well of the well plate prepared and the above compound dilution solution was added at a rate of 100 μL/well to obtain 200 μL/well. Thereafter, the cells were incubated in the CO2 incubator at 37° C. for further three days. To each well of the well plate, 10 μL of a WST-8 kit (Kishida Chemical Co., Ltd.) solution for counting the number of cells was added and a color reaction was performed in the CO2 incubator for 1 to 4 hours. After the absorbance at 450 nm (reference wavelength: 620 nm) was measured by a microplate reader, suppressing action of the test substance was calculated based on the absorbance value in the absence of a test substance.
row,Structure (SMILES),IC50 [µM]
1,CC(C)CNc1nc(-c2cccc(C(N)=O)c2)cn2c(-c3ccc(C(=O)NC4CC4)cc3)cnc12 [Example 1-143],0.5 to 1
2,CC(C)CNc1nc(-c2ccc(S(=O)(=O)C(C)C)cc2)cn2c(-c3ccc(C(=O)NC4CC4)cc3)cnc12 [Example 1-116],0.5 to 1
3,CC(C)CNc1nc(-c2ccc(OCCN3CCOCC3)cc2)cn2c(-c3ccc(C(=O)NC4CC4)cc3)cnc12 [Example 1-117],1 to 10
4,CC(=O)Nc1cccc(-c2cn3c(-c4ccc(C(=O)NC5CC5)cc4)cnc3c(NCC(C)C)n2)c1 [Example 1-157],0.5 to 1
5,CC(C)CNc1nc(-c2ccc(C(N)=O)cc2)cn2c(-c3ccc(C(=O)NC4CC4)cc3)cnc12 [Example 1-151],0.05 to 0.5
6,CC(C)CNc1nc(-c2cccc(C(=O)NCCCN(C)C)c2)cn2c(-c3ccc(C(=O)NC4CC4)cc3)cnc12 [Example 1-122],1 to 10
7,N#Cc1ccc(-c2cn3c(-c4ccc(C(=O)NC5CC5)cc4)cnc3c(NCC3CCOCC3)n2)cc1F [Example 1-246],0.05 to 0.5
8,CC(C)CNc1nc(-c2ccc(NC(=O)N3CCOCC3)cc2)cn2c(-c3ccc(C(=O)NC4CC4)cc3)cnc12 [Example 1-161],1 to 10
9,N#Cc1ccc(-c2cn3c(-c4ccc(C(=O)NC5CC5)cc4)cnc3c(NCC3CCOCC3)n2)cn1 [Example 1-244],0.05 to 0.5
10,CC(C)CNc1nc(-c2cccc(C(=O)NCCCN3CCN(C)CC3)c2)cn2c(-c3ccc(C(=O)NC4CC4)cc3)cnc12 [Example 1-138],1 to 10
11,COCC(=O)Nc1ccc(-c2cn3c(-c4ccc(C(=O)NC5CC5)cc4)cnc3c(NCC(C)C)n2)cc1 [Example 1-162],1 to 10
12,CC(C)CNc1nc(-c2ccc(C(=O)NCCS(C)(=O)=O)cc2)cn2c(-c3ccc(C(=O)NC4CC4)cc3)cnc12 [Example 1-149],1 to 10
13,CC(C)CNc1nc(-c2cccc(NCC3CCN(C)CC3)c2)cn2c(-c3ccc(C(=O)NC4CC4)cc3)cnc12 [Example 1-168],0.5 to 1
14,N#Cc1ccc(-c2cn3c(-c4ccc(C(=O)NC5CC5)cc4)cnc3c(NCC3CCOCC3)n2)c(N)c1 [Example 1-245],0.05 to 0.5
15,O=C(NC1CC1)c1ccc(-c2cnc3c(NCC4CCOCC4)nc(CC4CCCCC4)cn23)cc1 [Example 1-250],1 to 10
16,CC(C)CNc1nc(-c2cccc(C(=O)NCCS(C)(=O)=O)c2)cn2c(-c3ccc(C(=O)NC4CC4)cc3)cnc12 [Example 1-141],1 to 10
17,CC(C)CNc1nc(-c2ccc(NC(=O)NCc3ccco3)cc2)cn2c(-c3ccc(C(=O)NC4CC4)cc3)cnc12 [Example 1-118],0.5 to 1
18,CC(C)CNc1nc(-c2cccc(CN3CCOCC3)c2)cn2c(-c3ccc(C(=O)NC4CC4)cc3)cnc12 [Example 1-127],1 to 10
19,CC(C)CNc1nc(-c2ccc(NC(=O)N3CCN(C)CC3)cc2)cn2c(-c3ccc(C(=O)NC4CC4)cc3)cnc12 [Example 1-160],1 to 10
20,CC(C)CNc1nc(CCc2ccc(C(=O)O)cc2)cn2c(-c3ccc(C(=O)NC4CC4)cc3)cnc12 [Example 1-175],0.05 to 0.5
21,O=C(NC1CC1)c1ccc(-c2cnc3c(NCC4CCOCC4)nc(-c4ccncc4)cn23)cc1 [Example 1-179],0.05 to 0.5
22,COCCNC(=O)c1ccc(-c2cn3c(-c4ccc(C(=O)NC5CC5)cc4)cnc3c(NCC(C)C)n2)cc1 [Example 1-148],0.5 to 1
23,CC(C)CNc1nc(-c2ccccc2N)cn2c(-c3ccc(C(=O)NC4CC4)cc3)cnc12 [Example 1-123],0.05 to 0.5
24,CC(C)CNc1nc(-c2cccc(N)c2)cn2c(-c3ccc(C(=O)NC4CC4)cc3)cnc12 [Example 1-124],0.5 to 1
25,CC(C)CNc1nc(-c2cccc(C#N)c2)cn2c(-c3ccc(C(=O)NC4CC4)cc3)cnc12 [Example 1-106],0.5 to 1

# Same assay, conditions: Homo sapiens, A549, 72 h, read-out: A549 IC50 (μM)
row,Structure (SMILES),IC50 [µM]
1,O=C(NC1CC1)c1ccc(-c2cnc3c(NCC4CC4)nccn23)cc1 [Example 1-36],1 to 10
2,CCCNc1nccn2c(-c3ccc(C(=O)NC4CC4)cc3)cnc12 [Example 1-37],1 to 10
3,CC(C)CCNc1nccn2c(-c3ccc(C(=O)NC4CC4)cc3)cnc12 [Example 1-43],1 to 10
